From article PMC10161675, “Study on the absolute configuration and biological activity of rotenoids from the leaves and twigs of Millettia pyrrhocarpa Mattapha, Forest & Hawkins, sp. Nov” (BMC Complementary Medicine and Therapies, 2023)
≈ marks a conversion by molar mass, not a printed value.

How the values were obtained:
[1] = test system: P. mirabilis DMST 8212; test: microbe, parasite or virus in culture; type: cell-based; details: Proteus mirabilis; for MBC: DMST8212, read-out: Concentration of MBC; for MIC: DMST8212, read-out: Concentration of MIC
Description: (§1) The study on in vitro antibacterial activity was carried out against nine strains (S. aureus ATCC 25923 DMST 8840, E. aerogenes ATCC13048 DMST 8841, E. coli O157: H7 DMST 12743, E. coli Enterotoxigenic, ETEC DMST 30543, E. coli Enteropathogenic, EPEC DMST 30546, S. typhimurium ATCC 13311 DMST 562, S. flexneri DMST 4423, P. mirabilis DMST 8212, and V. cholera nonO1/nonO139 DMST 2873).

[2] = test system: E. coli Enteropathogenic, EPEC DMST 30546; test: microbe, parasite or virus in culture; type: cell-based; details: Escherichia coli; for MBC: read-out: Concentration of MBC
Description: as §1

[3] = test system: E. coli Enterotoxigenic, ETEC DMST 30543; test: microbe, parasite or virus in culture; type: cell-based; details: Escherichia coli; for MBC: read-out: Concentration of MBC
Description: as §1

[4] = test system: E. aerogenes ATCC13048 DMST 8841; test: microbe, parasite or virus in culture; type: cell-based; details: Klebsiella aerogenes; for MBC: read-out: Concentration of MBC; for MIC: read-out: Concentration of MIC
Description: as §1

[5] = test system: S. typhimurium ATCC 13311 DMST 562; test: microbe, parasite or virus in culture; type: cell-based; details: Salmonella enterica; for MBC: read-out: Concentration of MBC; for MIC: read-out: Concentration of MIC
Description: as §1

[6] = test system: S. aureus ATCC 25923 DMST 8840; test: microbe, parasite or virus in culture; type: cell-based; details: Staphylococcus aureus; for MBC: ATCC25923, read-out: Concentration of MBC; for MIC: ATCC25923, read-out: Concentration of MIC
Description: as §1

[7] = test system: S. flexneri DMST 4423; test: microbe, parasite or virus in culture; type: cell-based; details: Shigella flexneri; for MBC: DMST4423, read-out: Concentration of MBC; for MIC: DMST4423, read-out: Concentration of MIC
Description: as §1

[8] = test system: E. coli O157: H7 DMST 12743; test: Antibacterial activity (MIC/MBC); type: cell-based; details: Escherichia coli; for MBC: read-out: Concentration of MBC; for MIC: read-out: Concentration of MIC
Description: as §1

[9] = test system: V. cholera nonO1/nonO139 DMST 2873; test: Antibacterial activity (MIC/MBC); type: cell-based, V. cholerae; details: Vibrio cholerae; for MBC: read-out: Concentration of MBC; for MIC: read-out: Concentration of MIC
Description: as §1

[10] = molecular target: T1, HIV-1 RT (Human immunodeficiency virus type 1 group M subtype B, UniProt P04585); test: Anti-HIV1-RT assay; type: biochemical; details: read-out: Anti-HIV-1 RT (% Inhibition)
T1 construct: For determination of IC50 in the HIV-1 RT assay
Description: (§2) Anti-HIV1-RT assays of the crude extracts and isolated compounds were evaluated according to the standard methods described in previous literature. Cell-based assays for anti-HIV-1 RT of the crude extracts and isolated compounds were evaluated according to the standard methods described in previous literature

[11] = test system: Hep G2 (Human hepatocellular carcinoma); test: Cytotoxicity assay; type: cell-based; details: listed as 6aS, 12aS, 12S-elliptinol (1)
Text: (§3) Cells line materials KKU-M213 (human cholangiocarcinoma) cells were kindly provided by Dr. Banchob Sripa from Liver Fluke and Cholangiocarcinoma Research Center, Department of Pathology, Faculty of Medicine, Khon Kean University. MMNK1 (human cholangiocyte) cells were obtained from the Japanese Collection of Research Bioresources Cell Bank (JCRB, Osaka, Japan). FaDu (human hypopharyngeal carcinoma), HT29 (human colorectal adenocarcinoma), MDA-MB-231 (human mammary gland/breast adenocarcinoma), SH-SY5Y (human neuroblastoma), A549 (human lung carcinoma), and HepG2 (human hepatocellular carcinoma) cell lines were obtained from the American Type Culture Collection (ATCC, Manassas, VA, USA).
(§4) Cytotoxicity assays of the crude extracts and isolated compounds were evaluated according to the standard methods described in previous literature.

[12] = test system: A 549 (Human lung adenocarcinoma); test: Cytotoxicity assay; type: cell-based; details: A549
Text: as §3, §4

[13] = test system: ΔTat/RevMC99 virus in 1A2 cells; test: Anti-syncytium (MC99 + 1A2) cell-based assay for anti-HIV-1; details: Human immunodeficiency virus 1, 1A2, read-out: Anti-syncytium (MC99+1A2) EC50
Description: as §2
Fig. 4 Anti-syncytium MC99 + 1A2 of crude extracts and pure compounds from leaves and twigs of M. Pyrrhocarpa. ^bAnti-syncytium (MC99 + 1A2) EC50 = dose of compound that reduced 50% syncytium formation by ΔTat/RevMC99 virus in 1A2 cells.

| Structure (SMILES) | MBC [1] [µg/mL] | MIC [1] [µg/mL] | MBC [4] [µg/mL] | MIC [4] [µg/mL] | MBC [5] [µg/mL] | MIC [5] [µg/mL] | MBC [6] [µg/mL] | MIC [6] [µg/mL] | MBC [7] [µg/mL] | MIC [7] [µg/mL] | MBC [8] [µg/mL] | MIC [8] [µg/mL] | MBC [9] [µg/mL] | MIC [9] [µg/mL] | inhibition at 200 µg/mL [10] [%] | MBC [2] [µg/mL] | MBC [3] [µg/mL] | EC50 [13] [µM] | melting point [°C] | other results |
| --- | --- | --- | --- | --- | --- | --- | --- | --- | --- | --- | --- | --- | --- | --- | --- | --- | --- | --- | --- | --- |
| O=C(N[C@H](CO)[C@H](O)c1ccc([N+](=O)[O-])cc1)C(Cl)Cl [Chloramphenicol, reference compound] | 31.2 (≈ 0.0966 mM) | < 30 | 125 (≈ 0.387 mM) | < 30 | 125 (≈ 0.387 mM) | < 35 | 125 (≈ 0.387 mM) | < 30 | 125 (≈ 0.387 mM) | < 30 | 125 (≈ 0.387 mM) | < 30 | 125 (≈ 0.387 mM) | < 30 |  |  |  |  |  | MIC ([2]; read-out: Concentration of MIC): < 30 µg/mL; MIC ([3]; read-out: Concentration of MIC): < 30 µg/mL |
| COc1cc2c(cc1OC)[C@H]1[C@H](O)c3ccc4occc4c3O[C@@H]1CO2 [Compound 1, 6aS, 12aS, 12S-elliptinol] | > 3000 | 3000 (≈ 8.47 mM) | > 3000 | 3000 (≈ 8.47 mM) | > 3000 | 3000 (≈ 8.47 mM) | > 3000 | 3000 (≈ 8.47 mM) | > 3000 | 3000 (≈ 8.47 mM) | > 3000 | 3000 (≈ 8.47 mM) | > 3000 | 3000 (≈ 8.47 mM) | 0.03 | > 3000 | > 3000 | 4.48 |  | cytotoxicity ED50 [11]: 3.97 µg/mL; cytotoxicity ED50 [12]: 2.27 µg/mL |
| COc1ccc2c(c1)O[C@@H]1COc3cc(OC)c(OC)cc3[C@H]1[C@@H]2O [Compound 2, 6aS, 12aS, 12S-munduserol] | > 3000 | 3000 (≈ 8.71 mM) | > 3000 | 3000 (≈ 8.71 mM) | > 3000 | 3000 (≈ 8.71 mM) | > 3000 | 3000 (≈ 8.71 mM) | > 3000 | 3000 (≈ 8.71 mM) | > 3000 | 3000 (≈ 8.71 mM) | > 3000 | 3000 (≈ 8.71 mM) | 8.98 | > 3000 | > 3000 | 4.99 | 240 to 241 |  |
| COc1ccc2c(=O)c3c(oc2c1)COc1cc(OC)c(OC)cc1-3 [Compound 3, dehydromunduserone] | > 3000 | 3000 (≈ 8.81 mM) | > 3000 | 3000 (≈ 8.81 mM) | > 3000 | 3000 (≈ 8.81 mM) | > 3000 | 3000 (≈ 8.81 mM) | > 3000 | 3000 (≈ 8.81 mM) | > 3000 | 3000 (≈ 8.81 mM) | > 3000 | 3000 (≈ 8.81 mM) | 0 | > 3000 | > 3000 | 91 | 202 to 204 |  |
